From patent US4368203A, “Antibiotics and derivatives thereof having β-lactamase inhibitory activity and production thereof” (priority 1977, dated 1983)
Converted amounts (≈) assume the structure as drawn. Read-outs that look alike come from different tables or passages of the source.

Columns and labels:
Solubility = format: physicochemical; details: antibiotic (sodium salt); for Solubility in organic solvents: solvents named in the value
Source text: The results are as shown as below:
The results are as shown below:

Proteus sp. P-22 = experiment: MIC, broth dilution method; details: 20 h, read-out: Minimum inhibitory concentration
Proteus mirabilis P-6 = experiment: MIC, broth dilution method; details: P6, 20 h, read-out: Minimum inhibitory concentration
[1] = tested on: Staphylococcus aureus Smith; experiment: In vivo activity in intraperitoneally infected mice; parameters: species or system DDY male mice; details: for ED50: Staphylococcus aureus, sc, mice infected i.p. with 5×10^5 cells/mouse, subcutaneous injection just after infection, read-out: 50% curative dose (CD50); for Therapeutic effect in infected mice: mice infected with pathogenic Gram-positive bacteria
Procedure: Soon after infection, an aqueous solution of the antibiotic PS-5 sodium salt preparation was subcutaneously injected.
Activity of the antibiotic PS-7 obtained above was determined using mice infected with Staphylococcus aureus Smith at 5×10^5 cells a mouse intraperitoneally. Sodium salt of the antibiotic PS-7 was administered to the mice subcutaneously immediately after the infection.
The tritylation product of antibiotic PS-6 was subcutaneously injected just after infection. The 50% curative dose on male DDY mice (SHIZUOKA) was 5.5 mg/kg.
The tritylation product of antibiotic PS-7 was subcutaneously injected just after infection. The 50% curative dose on make DDY mice (SHIZUOKA) was 4.5 mg/kg.

Enterobacter sp. E-8 = experiment: MIC, broth dilution method; details: SP.E8, 20 h, read-out: Minimum inhibitory concentration
[2] = tested on: Staphylococcus aureus Bx-1633; experiment: MIC, broth dilution method; details: BX1633, 20 h, read-out: Minimum inhibitory concentration
[3] = tested on: Staphylococcus aureus Rassell; experiment: MIC, broth dilution method; details: 20 h, read-out: Minimum inhibitory concentration
Citrobacter freundii E-9 = experiment: Potentiating and synergistic effect, pulp disc inhibition zone on agar plate; format: cell-based; details: Table 6, disc 20 μl, PS-6 240 μg/ml, reference antibiotics 10,000 μg/ml
Procedure: (§1) 10 ml of 2.5 folds diluted nutrient agar (pH 7.0) containing 50 μg/ml of penicillin G or cephaloridine was seeded with the β-lactamase producing and β-lactam-resistant microorganisms and poured in a 9 cm Petri dish to provide the bio-assay agar plate. On this assay plate, 8 mm of pulp discs each containing 20 μl of antibiotic PS-6 solution at the concentration of 240 μg/ml were placed and incubated at 35° C. for 18 hours before reading the inhibition zones. A control assay plate was similarly prepared without penicillin G or cephaloridine. As reference antibiotics, 10,000 μg/ml of penicillin G or 20 μl of cephaloridine were disc-assayed under the same conditions.

Serratia marcescens S-18 = experiment: as above; format: cell-based; details: Table 6, disc 20 μl, PS-6 240 μg/ml, reference antibiotics 10,000 μg/ml
Procedure: as §1

[4] = tested on: Staphylococcus aureus FDA 209P; experiment: MIC, broth dilution method; format: cell-based; details: FDA209P, Table 5, 35° C. 20 hours, read-out: Minimum inhibitory concentration
[5] = tested on: Diplococcus pneumoniae Type III; experiment: MIC, broth dilution method; format: cell-based; details: Streptococcus pneumoniae, 20 h; Table 5; 10% horse blood supplemented into the medium; read-out: Minimum inhibitory concentration
Proteus vulgaris P-5 = experiment: Potentiating and synergistic effect, pulp disc inhibition zone on agar plate; format: cell-based; details: for Diameter of inhibitory zone, No addition / Diameter of inhibitory zone, Cephaloridine-added: Table 8; for Diameter of inhibitory zone, No addition: medium without cephaloridine; for Diameter of inhibitory zone, Cephaloridine-added: cephaloridine in the agar
Procedure: as §1, with “On this assay plate, 8 mm of pulp discs each containing 20 μl of antibiotic PS-6 solution at the concentration of 240 μg/ml were placed and incubated at 35° C. for 18 hours before reading the inhibition zones.” left out
Cepholoridine was added to a 2.5-times diluted nutrient agar, pH 7.0 and the medium was inoculated with a β-lactam-producing strain that produceds β-lactamase. Ten ml of the medium was spread and solidified in a petri dish of 9 cm in diameter to prepare an assay plate. […] Each 20 μl of the solution and its 2- and 4-times diluted solutions was soaked in a pulp disc of 8 mm in diameter. To the surface of the above nutrient agar was placed the pulp disc and the size of the growth inhibitory zone around the disc was examined after incubation at 35° C. for 18 hours. […] In addition, for the comparison, a similar experiment was also performed with a pulp disk soaked with 20 μl of 10,000 μg/ml Penicillin G or Cepholoridine solution in place of the antibiotic PS-7.

[6] = tested on: Gram-positive and Gram-negative bacteria; experiment: Antibiotic spectra (summary in words); format: cell-based; details: for Antibiotic activity against Gram-negative bacteria resistant to β-lactam antibiotics: genera Citrobacter, Proteus, Klebsiella, Enterobacter, Serratia as named at the place; for Antibiotic activity against Gram-positive bacteria: genera Staphylococcus, Diplococcus, Streptococcus, Bacillus as named at the place
Proteus rettgeri P-7 = experiment: MIC, broth dilution method; details: Providencia rettgeri, P7, 20 h, read-out: Minimum inhibitory concentration
[7] = tested on: Staphylococcus aureus FDA 209P; experiment: MIC, broth dilution method; format: cell-based; details: Staphylococcus aureus, FDA209P; Table 7; no unit in the head; read-out: Minimum inhibitory concentration
[8] = agar containing 50 μg/ml of cephaloridine
[9] = agar containing 50 μg/ml of penicillin G
[10] = disc x2 (2-times diluted PS-7 solution)
[11] = disc x4 (4-times diluted PS-7 solution)

With `CC(=O)NCCSC1=C(C(=O)O)N2C(=O)C(C(C)C)C2C1` (stereo not drawn) [Antibiotic PS-6] the Solubility in water (Solubility) was “soluble in water at pH 6 to 9”, the “Solubility in organic solvents” value (Solubility) was “substantially insoluble in benzene, acetone and ethylacetate” and the MIC (Proteus sp. P-22) was 12.5 µg/mL (≈ 40 µM). For the same compound, the MIC (Proteus mirabilis P-6) was 12.5 µg/mL (≈ 40 µM), the ED50 [1] was 5.2 mg/kg and the “Therapeutic effect in infected mice” value [1] was “marked therapeutic effect”. It also gave an MIC (Enterobacter sp. E-8) of 12.5 µg/mL (≈ 40 µM), an MIC [2] of 0.33 µg/mL (≈ 1.06 µM) and an MIC [3] of 1.34 µg/mL (≈ 4.29 µM). For the same compound, the zone of inhibition at 240 µg/mL (Citrobacter freundii E-9; Citrobacter freundii, E9, 18 h, plate without penicillin G or cephaloridine, read-out: Inhibition zone, Control) was 22 mm, the “Inhibition zone, with cephaloridine” value (Citrobacter freundii E-9; [8]) was 25.0 mm and the “Inhibition zone, with penicillin G” value (Citrobacter freundii E-9; [9]) was 23.0 mm. The zone of inhibition at 240 µg/mL (Serratia marcescens S-18; Serratia marcescens, S18, 18 h, plate without penicillin G or cephaloridine, read-out: Inhibition zone, Control) was 20 mm, the “Inhibition zone, with cephaloridine” value (Serratia marcescens S-18; [8]) was 26.0 mm and the “Inhibition zone, with penicillin G” value (Serratia marcescens S-18; [9]) was 22.0 mm. It also gave an MIC [4] of 0.33 µg/mL (≈ 1.06 µM), an MIC [5] of 0.17 µg/mL (≈ 0.544 µM) and a zone of inhibition at 240 µg/mL (Proteus vulgaris P-5; Proteus vulgaris, P5, Table 6, plate without penicillin G or cephaloridine, 8 mm disc, 20 μl, PS-6 240 μg/ml, reference antibiotics 10,000 μg/ml, 35° C. 18 hours, read-out: Inhibition zone, Control) of 14 mm. The “Inhibition zone, with cephaloridine” value (Proteus vulgaris P-5; Table 6, agar containing 50 μg/ml of cephaloridine, disc 20 μl, PS-6 240 μg/ml, reference antibiotics 10,000 μg/ml) was 28.5 mm, the “Inhibition zone, with penicillin G” value (Proteus vulgaris P-5; Table 6, agar containing 50 μg/ml of penicillin G, disc 20 μl, PS-6 240 μg/ml, reference antibiotics 10,000 μg/ml) was 30.0 mm and the “Antibiotic activity against Gram-negative bacteria of the genera Klebsiella, Proteus” value [6] was “good activity”. The “Antibiotic activity against Gram-negative bacteria of the genus Alcaligenes (Comamonas)” value [6] was “very strong activity”, the “Antibiotic activity against Gram-negative bacteria resistant to β-lactam antibiotics” value [6] was “strong activity” and the “Antibiotic activity against Gram-positive bacteria” value [6] was “very strong activity”. The MIC (Proteus rettgeri P-7) was 6.25 µg/mL (≈ 20 µM).

For `CCC1C(=O)N2C(C(=O)O)=C(SC=CNC(C)=O)CC12` (stereo not drawn) [Antibiotic PS-7], the Solubility in water (Solubility) was “Soluble in water at pH6-9”, the “Solubility in organic solvents” value (Solubility) was “practically insoluble in benzene, acetone and ethyl acetate” and the ED50 [1] was 7.5 mg/kg. The “Therapeutic effect in infected mice” value [1] was “marked therapeutic effect”, the “Diameter of inhibitory zone, No addition” value (Proteus vulgaris P-5; disc x1 (undiluted PS-7 solution, 50 μg/ml or 29 μg/ml, 20 μl)) was 0.0 mm and the “Diameter of inhibitory zone, Cephaloridine-added” value (Proteus vulgaris P-5; disc x1 (undiluted PS-7 solution, 20 μl)) was 19.0 mm. For the same compound, the “Diameter of inhibitory zone, Cephaloridine-added” value (Proteus vulgaris P-5; [10]) was 15.0 mm, the “Diameter of inhibitory zone, No addition” value (Proteus vulgaris P-5; [10]) was 0.0 mm and the “Diameter of inhibitory zone, Cephaloridine-added” value (Proteus vulgaris P-5; [11]) was 11.0 mm. For the same compound, the “Diameter of inhibitory zone, No addition” value (Proteus vulgaris P-5; [11]) was 0.0 mm, the “Antibiotic activity against Gram-negative bacteria of the genus Alcaligenes (Comamonas)” value [6] was “high antimicrobial activity” and the “Antibiotic activity against Gram-negative bacteria resistant to β-lactam antibiotics” value [6] was “high antimicrobial activity”. For the same compound, the “Antibiotic activity against Gram-positive bacteria” value [6] was “very high antimicrobial activity” and the MIC [7] was < 0.19 µg/mL.
